Reference: ChEMBL document CHEMBL3885881, “DrugMatrix”

Species: Rattus norvegicus
Assay: DrugMatrix - Regimen: Daily Repeat
Format: toxicity, organism-based, Sprague-Dawley
Parameters: regimen Daily Repeat, gender Male, age 6-8 weeks
Conditions: in vivo, po, route oral GAVAGE, […]; for ABSOLUTE BASOPHIL / ABSOLUTE EOSINOPHIL / ABSOLUTE LYMPHOCYTE / ABSOLUTE MONOCYTE / ABSOLUTE SEGMENTED NEUTROPHIL / BASOPHIL / EOSINOPHIL / ERYTHROCYTE COUNT / HEMATOCRIT / HEMOGLOBIN / LEUKOCYTE COUNT / LYMPHOCYTE / MEAN CORPUSCULAR HEMOGLOBIN / MEAN CORPUSCULAR HEMOGLOBIN CONCENTRATION / MEAN CORPUSCULAR VOLUME / MONOCYTE / NEUTROPHIL / NUCLEATED RED BLOOD CELLS / PLATELET COUNT: tissue Blood; for ALANINE AMINOTRANSFERASE / ALBUMIN / ALKALINE PHOSPHATASE / ASPARTATE AMINOTRANSFERASE / BLOOD UREA NITROGEN / CARBON DIOXIDE / CHLORIDE / CHOLESTEROL / CREATINE PHOSPHOKINASE / CREATININE / GLUCOSE / LACTATE DEHYDROGENASE / LIPASE / PHOSPHORUS / POTASSIUM / SODIUM / TOTAL BILIRUBIN / TOTAL PROTEIN: tissue Plasma
[1] = 0 mg/kg, 72 h, dose level Control, time 3 day
[2] = 0 mg/kg, 120 h, dose level Control, time 5 day
[3] = 40 mg/kg, 72 h, dose level Low, time 3 day

CN(C)CCCC1(c2ccc(F)cc2)OCc2cc(C#N)ccc21 (stereo not given) [CITALOPRAM]
ABSOLUTE BASOPHIL [1]: 0 CELLS/uL | ABSOLUTE EOSINOPHIL [1]: 41.83 CELLS/uL | ABSOLUTE LYMPHOCYTE [1]: 8545.5 CELLS/uL | ABSOLUTE MONOCYTE [1]: 240 CELLS/uL | ABSOLUTE SEGMENTED NEUTROPHIL [1]: 906 CELLS/uL | BASOPHIL [1]: 0% | EOSINOPHIL [1]: 0.33% | ERYTHROCYTE COUNT [1]: 5.6 x10E6/uL | HEMATOCRIT [1]: 35.4% | HEMOGLOBIN [1]: 13.42 G/DL | LEUKOCYTE COUNT [1]: 9.73 x10E3/uL | LYMPHOCYTE [1]: 87.83% | MEAN CORPUSCULAR HEMOGLOBIN [1]: 23.98 pg | MEAN CORPUSCULAR HEMOGLOBIN CONCENTRATION [1]: 37.92 G/DL | MEAN CORPUSCULAR VOLUME [1]: 63.3 fL | MONOCYTE [1]: 2.5% | NEUTROPHIL [1]: 9.33% | NUCLEATED RED BLOOD CELLS [1]: 0 /100WBC | PLATELET COUNT [1]: 1032 x10E3/uL | ALANINE AMINOTRANSFERASE [1]: 72.83 u/L | ALBUMIN [1]: 4 G/DL | ALKALINE PHOSPHATASE [1]: 322.83 u/L | ASPARTATE AMINOTRANSFERASE [1]: 102.67 u/L | BLOOD UREA NITROGEN [1]: 12 mg/dL | CARBON DIOXIDE [1]: 34.33 mmol/L | CHLORIDE [1]: 97.67 MEQ/L | CHOLESTEROL [1]: 82.5 mg/dL | CREATINE PHOSPHOKINASE [1]: 410.33 u/L | CREATININE [1]: 0.18 mg/dL | GLUCOSE [1]: 164.5 mg/dL | LACTATE DEHYDROGENASE [1]: 119.5 u/L | LIPASE [1]: 11.83 u/L | PHOSPHORUS [1]: 9.52 mg/dL | POTASSIUM [1]: 5.56 MEQ/L | SODIUM [1]: 142.48 MEQ/L | TOTAL BILIRUBIN [1]: 0.18 mg/dL | TOTAL PROTEIN [1]: 5.77 G/DL | ABSOLUTE BASOPHIL [2]: 0 CELLS/uL | ABSOLUTE EOSINOPHIL [2]: 0 CELLS/uL | ABSOLUTE LYMPHOCYTE [2]: 9065 CELLS/uL | ABSOLUTE MONOCYTE [2]: 341.33 CELLS/uL | ABSOLUTE SEGMENTED NEUTROPHIL [2]: 527 CELLS/uL | BASOPHIL [2]: 0% | EOSINOPHIL [2]: 0% | ERYTHROCYTE COUNT [2]: 5.25 x10E6/uL | HEMATOCRIT [2]: 34.08% | HEMOGLOBIN [2]: 13.5 G/DL | LEUKOCYTE COUNT [2]: 9.93 x10E3/uL | LYMPHOCYTE [2]: 91.17% | MEAN CORPUSCULAR HEMOGLOBIN [2]: 25.7 pg | MEAN CORPUSCULAR HEMOGLOBIN CONCENTRATION [2]: 39.62 G/DL | MEAN CORPUSCULAR VOLUME [2]: 64.93 fL | MONOCYTE [2]: 3.33% | NEUTROPHIL [2]: 5.5% | NUCLEATED RED BLOOD CELLS [2]: 0 /100WBC | PLATELET COUNT [2]: 1077.5 x10E3/uL | ALANINE AMINOTRANSFERASE [2]: 57.83 u/L | ALBUMIN [2]: 4.07 G/DL | ALKALINE PHOSPHATASE [2]: 319.17 u/L | ASPARTATE AMINOTRANSFERASE [2]: 83.33 u/L | BLOOD UREA NITROGEN [2]: 13.67 mg/dL | CARBON DIOXIDE [2]: 30.83 mmol/L | CHLORIDE [2]: 98.33 MEQ/L | CHOLESTEROL [2]: 64.83 mg/dL | CREATINE PHOSPHOKINASE [2]: 263.67 u/L | CREATININE [2]: 0.2 mg/dL | GLUCOSE [2]: 182.83 mg/dL | LACTATE DEHYDROGENASE [2]: 124 u/L | LIPASE [2]: 10.5 u/L | PHOSPHORUS [2]: 10 mg/dL | POTASSIUM [2]: 5.78 MEQ/L | SODIUM [2]: 142.48 MEQ/L | TOTAL BILIRUBIN [2]: 0.2 mg/dL | TOTAL PROTEIN [2]: 6 G/DL | ABSOLUTE BASOPHIL [3]: 0 CELLS/uL | ABSOLUTE EOSINOPHIL [3]: 46.33 CELLS/uL | ABSOLUTE LYMPHOCYTE [3]: 12847 CELLS/uL | ABSOLUTE MONOCYTE [3]: 96.67 CELLS/uL | ABSOLUTE SEGMENTED NEUTROPHIL [3]: 810 CELLS/uL | BASOPHIL [3]: 0% | EOSINOPHIL [3]: 0.33% | ERYTHROCYTE COUNT [3]: 5.4 x10E6/uL | HEMATOCRIT [3]: 34.8% | HEMOGLOBIN [3]: 13.67 G/DL | LEUKOCYTE COUNT [3]: 13.8 x10E3/uL | LYMPHOCYTE [3]: 93% | MEAN CORPUSCULAR HEMOGLOBIN [3]: 25.3 pg | MEAN CORPUSCULAR HEMOGLOBIN CONCENTRATION [3]: 39.27 G/DL | MEAN CORPUSCULAR VOLUME [3]: 64.37 fL | MONOCYTE [3]: 0.67% | NEUTROPHIL [3]: 6% | NUCLEATED RED BLOOD CELLS [3]: 0 /100WBC | PLATELET COUNT [3]: 979.33 x10E3/uL | ALANINE AMINOTRANSFERASE [3]: 61.33 u/L | ALBUMIN [3]: 3.93 G/DL | ALKALINE PHOSPHATASE [3]: 390.33 u/L | ASPARTATE AMINOTRANSFERASE [3]: 85.33 u/L | BLOOD UREA NITROGEN [3]: 9.33 mg/dL | CARBON DIOXIDE [3]: 28 mmol/L | CHLORIDE [3]: 101 MEQ/L | CHOLESTEROL [3]: 69.67 mg/dL | CREATINE PHOSPHOKINASE [3]: 135.67 u/L | CREATININE [3]: 0.31 mg/dL | GLUCOSE [3]: 158.67 mg/dL | LACTATE DEHYDROGENASE [3]: 101.67 u/L | LIPASE [3]: 14.33 u/L | PHOSPHORUS [3]: 10.5 mg/dL | POTASSIUM [3]: 6.13 MEQ/L | SODIUM [3]: 144.7 MEQ/L | TOTAL BILIRUBIN [3]: 0.17 mg/dL
